Experimental data published in ChEMBL document CHEMBL1201862, “PubChem BioAssay data set” (2004).
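How tested: cells in 96-well plates exposed to compound for 48 hours at five concentrations. GI50: concentration for 50% inhibition of growth.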 Calls of active or inactive are those of the source. No stated cut-off is given here; in the data, active = GI50 up to about 1.1 µM and inactive = higher.

Tests used:
Assay in all cases: NCI tumour cell line growth inhibition, 48 h
OVCAR-3 = system: OVCAR-3
SF-295 = system: SF-295
LOX IMVI = system: LOX IMVI
COLO 205 = system: COLO 205
UACC-257 = system: UACC-257
MDA-MB-435 = system: MDA-MB-435
MDA-MB-231 = system: MDA-MB-231
UO-31 = system: UO-31
HCC 2998 = system: HCC 2998
SNB-19 = system: SNB-19
TK-10 = system: TK-10
NCI-H460 = system: NCI-H460
HCT-116 = system: HCT-116
MCF7 = system: MCF7
KM12 = system: KM12
A549 = system: A549
RXF 393 = system: RXF 393
OVCAR-4 = system: OVCAR-4
A498 = system: A498
SK-MEL-5 = system: SK-MEL-5
SK-MEL-28 = system: SK-MEL-28
NCI/ADR-RES = system: NCI/ADR-RES
ACHN = system: ACHN
M14 = system: M14
SNB-75 = system: SNB-75
UACC-62 = system: UACC-62
EKVX = system: EKVX
786-0 = system: 786-0
SK-MEL-2 = system: SK-MEL-2
K562 = system: K562
SW-620 = system: SW-620
PC-3 = system: PC-3
CAKI-1 = system: CAKI-1
SK-OV-3 = system: SK-OV-3
DU-145 = system: DU-145
HOP-92 = system: HOP-92
CCRF-CEM = system: CCRF-CEM
NCI-H23 = system: NCI-H23
OVCAR-8 = system: OVCAR-8
HCT-15 = system: HCT-15
RPMI-8226 = system: RPMI-8226
HOP-62 = system: HOP-62
U-251 = system: U-251
MOLT-4 = system: MOLT-4
T47D = system: T47D
OVCAR-5 = system: OVCAR-5
SF-268 = system: SF-268
NCI-H226 = system: NCI-H226
BT-549 = system: BT-549
HL-60 = system: HL-60
SR = system: SR
Malme-3M = system: Malme-3M
IGROV-1 = system: IGROV-1
SF-539 = system: SF-539
NCI-H522 = system: NCI-H522

Measured: GI50

CN(C)C(=O)C(F)(F)C(c1ccccc1)C1C(=O)N(C)C(=O)N(C)C1=O (stereo not drawn)
> 100 µM: HCT-15
inactive: OVCAR-3 > 100 µM | SF-295 > 100 µM | LOX IMVI > 100 µM | COLO 205 > 100 µM | UACC-257 > 100 µM | MDA-MB-435 > 100 µM | MDA-MB-231 > 100 µM | UO-31 > 100 µM | HCC 2998 > 100 µM | SNB-19 > 100 µM | TK-10 > 100 µM | NCI-H460 > 100 µM | HCT-116 > 100 µM | MCF7 > 100 µM | KM12 > 100 µM | A549 > 100 µM | RXF 393 > 100 µM | OVCAR-4 > 100 µM | A498 > 100 µM | SK-MEL-5 > 100 µM | SK-MEL-28 > 100 µM | NCI/ADR-RES > 100 µM | ACHN > 100 µM | M14 > 100 µM | SNB-75 > 100 µM | UACC-62 > 100 µM | EKVX > 100 µM | 786-0 > 100 µM | SK-MEL-2 > 100 µM | K562 > 100 µM | SW-620 > 100 µM | PC-3 > 100 µM | CAKI-1 > 100 µM | SK-OV-3 > 100 µM | DU-145 > 100 µM | HOP-92 > 100 µM | CCRF-CEM > 100 µM | NCI-H23 > 100 µM | OVCAR-8 > 100 µM | RPMI-8226 > 100 µM | HOP-62 > 100 µM | U-251 > 100 µM | MOLT-4 > 100 µM | T47D > 100 µM | OVCAR-5 > 100 µM | SF-268 > 100 µM | NCI-H226 > 100 µM | BT-549 > 100 µM

N#Cc1c(-c2ccc(Cl)cc2)cc(-c2ccc(Nc3ccnc4cc(Cl)ccc34)cc2)nc1N
inactive: OVCAR-3 > 100 µM | HL-60 > 100 µM | SF-295 > 100 µM | COLO 205 > 100 µM | MDA-MB-435 > 100 µM | MDA-MB-231 > 100 µM | UO-31 > 100 µM | HCC 2998 > 100 µM | SNB-19 28.8 µM | TK-10 > 100 µM | NCI-H460 > 100 µM | HCT-116 > 100 µM | SR 5.45 µM | KM12 > 100 µM | Malme-3M > 100 µM | A549 > 100 µM | RXF 393 > 100 µM | OVCAR-4 38.2 µM | A498 > 100 µM | SK-MEL-28 > 100 µM | NCI/ADR-RES > 100 µM | IGROV-1 > 100 µM | ACHN > 100 µM | M14 > 100 µM | SNB-75 > 100 µM | SF-539 87.7 µM | UACC-62 > 100 µM | EKVX > 100 µM | 786-0 > 100 µM | SK-MEL-2 > 100 µM | K562 > 100 µM | SW-620 > 100 µM | PC-3 > 100 µM | CAKI-1 > 100 µM | SK-OV-3 > 100 µM | DU-145 > 100 µM | HOP-92 > 100 µM | NCI-H23 > 100 µM | OVCAR-8 40.1 µM | RPMI-8226 > 100 µM | HOP-62 > 100 µM | U-251 97.1 µM | T47D > 100 µM | OVCAR-5 > 100 µM | SF-268 > 100 µM | NCI-H226 > 100 µM | BT-549 > 100 µM | NCI-H522 41.7 µM
> 100 µM: HCT-15
